Laboratory results: the supplement of paper PMC8671470
± gives the standard deviation of the averaged measurements.

Assays:
HL-60 [1] = test: area under dose-response curve (viability, 1 nM-10 uM) (fraction (0-1)); higher = more sensitive; conditions: 72 h
How it was run: (§1)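 Area under the curve, where listed, was derived from four-parameter log-logistic fits with drc and PharmacoGx. These fits used CellTiter-Glo viability from HL-60 cells in RPMI 1640 with 10% FBS, normalised to DMSO wells and wells holding 10 μM proteasome inhibitor. The full library was rescreened on 384-well plates in duplicate at five tenfold concentrations, 1–10,000 nM, with DMSO or 100 nM of one of three metabolic inhibitors, for 72 h at 37 °C, 5% CO2.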

HL-60 [2] = test: cell viability (% survival relative to DMSO control); higher = less cytotoxic; conditions: 72 h
How it was run: as §1

[3] = co-treatment: GSK2194069 100 nM
[4] = co-treatment: pictilisib 100 nM
[5] = 0.001 µM, co-treatment: AZD3965 100 nM
[6] = 0.001 µM, co-treatment: DMSO vehicle
[7] = 0.001 µM, co-treatment: GSK2194069 100 nM
[8] = 0.001 µM, co-treatment: pictilisib 100 nM
[9] = 0.01 µM, co-treatment: AZD3965 100 nM
[10] = 0.01 µM, co-treatment: DMSO vehicle
[11] = 0.01 µM, co-treatment: GSK2194069 100 nM
[12] = 0.01 µM, co-treatment: pictilisib 100 nM
[13] = 0.1 µM, co-treatment: AZD3965 100 nM
[14] = 0.1 µM, co-treatment: DMSO vehicle
[15] = 0.1 µM, co-treatment: GSK2194069 100 nM
[16] = 0.1 µM, co-treatment: pictilisib 100 nM
[17] = 1 µM, co-treatment: AZD3965 100 nM
[18] = 1 µM, co-treatment: DMSO vehicle
[19] = 1 µM, co-treatment: GSK2194069 100 nM
[20] = 1 µM, co-treatment: pictilisib 100 nM
[21] = 10 µM, co-treatment: AZD3965 100 nM
[22] = 10 µM, co-treatment: DMSO vehicle
[23] = 10 µM, co-treatment: GSK2194069 100 nM
[24] = 10 µM, co-treatment: pictilisib 100 nM

| SMILES | area under dose-response curve (HL-60 [1]; co-treatment: AZD3965 100 nM) | area under dose-response curve (HL-60 [1]; co-treatment: DMSO vehicle) | area under dose-response curve (HL-60 [1]; [3]) | area under dose-response curve (HL-60 [1]; [4]) | cell viability (HL-60 [2]; [5]) [%] | cell viability (HL-60 [2]; [6]) [%] | cell viability (HL-60 [2]; [7]) [%] | cell viability (HL-60 [2]; [8]) [%] | cell viability (HL-60 [2]; [9]) [%] | cell viability (HL-60 [2]; [10]) [%] | cell viability (HL-60 [2]; [11]) [%] | cell viability (HL-60 [2]; [12]) [%] | cell viability (HL-60 [2]; [13]) [%] | cell viability (HL-60 [2]; [14]) [%] | cell viability (HL-60 [2]; [15]) [%] | cell viability (HL-60 [2]; [16]) [%] | cell viability (HL-60 [2]; [17]) [%] | cell viability (HL-60 [2]; [18]) [%] | cell viability (HL-60 [2]; [19]) [%] | cell viability (HL-60 [2]; [20]) [%] | cell viability (HL-60 [2]; [21]) [%] | cell viability (HL-60 [2]; [22]) [%] | cell viability (HL-60 [2]; [23]) [%] | cell viability (HL-60 [2]; [24]) [%] |
| --- | --- | --- | --- | --- | --- | --- | --- | --- | --- | --- | --- | --- | --- | --- | --- | --- | --- | --- | --- | --- | --- | --- | --- | --- |
| CC(C)(CCCCCCCCCCC(C)(C)CC(=O)O)CC(=O)O [MEDICA 16] | < 0.0301 | < 0.0301 | < 0.0301 | < 0.0301 | 100 ± 4.3 | 98.9 ± 3.6 | 101.1 ± 0.91 | 97.8 ± 6.5 | 104 ± 9.4 | 98.3 ± 3.4 | 87.2 ± 19 | 100 ± 6.5 | 105 ± 13 | 103 ± 3.3 | 99 ± 5.8 | 93.9 ± 4 | 101 ± 8.2 | 101 ± 1.5 | 102 ± 2.8 | 90 ± 2.5 | 99.5 ± 3.1 | 98 ± 1.4 | 93.201 ± 0.073 | 99.96 ± 0.98 |
| CCCCC/C=C\C/C=C\C/C=C\C/C=C\CCCC(=O)C(F)(F)F [Arachidonyl trifluoromethyl ketone] | < 0.0301 | < 0.0301 | 0.0624 | < 0.0301 | 101 ± 1.4 | 96.7 ± 2.5 | 88.4 ± 31 | 99.6 ± 20 | 104 ± 4.1 | 102 ± 8.7 | 101 ± 2.3 | 104 ± 7 | 101 ± 5.3 | 101 ± 3.3 | 108 ± 11 | 102 ± 9.9 | 91.8 ± 20 | 101 ± 7.4 | 89.7 ± 8.5 | 81.4 ± 45 | 98.3 ± 6.5 | 101 ± 1.2 | 56.72 ± 0.35 | 96.6 ± 9.5 |
| O=C(C(=O)c1ccc(Br)cc1)c1ccc(Br)cc1 [4,4'-Dibromobenzil] | < 0.0301 | < 0.0301 | < 0.0301 | < 0.0301 | 105 ± 1.5 | 102 ± 7.3 | 105 ± 3 | 109 ± 6.4 | 105 ± 4.3 | 100 ± 2.6 | 107.3 ± 0.49 | 105 ± 1.2 | 99.5 ± 2.2 | 99.8 ± 1.4 | 105.4 ± 0.27 | 95.5 ± 13 | 94.7 ± 14 | 96.7 ± 0.99 | 98.1 ± 5.3 | 98.3 ± 17 | 102 ± 3.9 | 101 ± 1.3 | 96.28 ± 0.88 | 101.7 ± 0.5 |
| Cn1c2cc(S(C)=O)sc2c2cnn(Cc3cccc(N)c3)c(=O)c21 (stereo unspecified) [TEPP-46] | < 0.0301 | < 0.0301 | < 0.0301 | < 0.0301 | 98.7 ± 1.3 | 99.6 ± 1.3 | 97.7 ± 7.9 | 87.3 ± 9.9 | 108 ± 2.5 | 103 ± 3.2 | 106 ± 4.1 | 106 ± 5.4 | 113 ± 11 | 104 ± 1.1 | 97.1 ± 18 | 112 ± 6 | 102 ± 1.3 | 104 ± 1.1 | 104 ± 7 | 98.02 ± 0.85 | 100 ± 3.8 | 107 ± 3.7 | 101 ± 1.6 | 95.3 ± 2.4 |
| CN(C)C(=O)n1nnnc1Cc1ccc(-c2ccccc2)cc1 | 0.113 | 0.116 | 0.108 | 0.116 | 91.3 ± 21 | 97.5 ± 6 | 101 ± 18 | 96.2 ± 1.6 | 99.6 ± 3.9 | 99.54 ± 0.76 | 96.8 ± 5.8 | 93.4 ± 2.5 | 103 ± 4.8 | 101 ± 2.4 | 104 ± 1.8 | 100 ± 1.6 | 105 ± 0.8 | 101.1 ± 0.28 | 109 ± 14 | 104 ± 2.9 | 6.18 ± 1.4 | 6.81 ± 0.78 | 6.62 ± 1.1 | 5 ± 0.78 |
| CC(=O)N1CCN(c2ccc(OC[C@@H]3CO[C@@](Cn4ccnc4)(c4ccc(Cl)cc4Cl)O3)cc2)CC1 (racemic) [Ketoconazole] | < 0.0301 | < 0.0301 | < 0.0301 | < 0.0301 | 98.3 ± 5 | 99.7 ± 1.4 | 100 ± 3.6 | 88.8 ± 17 | 95.6 ± 8.3 | 96.9 ± 3.1 | 78.8 ± 21 | 95.03 ± 0.18 | 105 ± 4.2 | 104 ± 3 | 109 ± 12 | 106 ± 18 | 109 ± 11 | 104 ± 0.52 | 110 ± 14 | 111 ± 10 | 96.1 ± 8.6 | 102.6 ± 0.17 | 95.6 ± 2.4 | 102 ± 1.4 |
| COc1cc(C2Oc3cc(C4Oc5cc(O)cc(O)c5C(=O)C4O)ccc3OC2CO)ccc1O (stereo unspecified) [Silibinin] | < 0.0301 | < 0.0301 | < 0.0301 | < 0.0301 | 107 ± 10 | 100 ± 2.7 | 107 ± 3.5 | 103 ± 3.9 | 99.1 ± 2.1 | 100.8 ± 0.69 | 101 ± 0.25 | 103 ± 3.5 | 107 ± 14 | 104 ± 4.8 | 105 ± 9.5 | 107 ± 12 | 102 ± 2.4 | 102 ± 4.2 | 105 ± 2.2 | 106 ± 9.9 | 102 ± 1.8 | 97.72 ± 0.59 | 97.3 ± 5 | 95.8 ± 2.6 |
| C=C1C(=O)O[C@H](CCCCCCCC)[C@H]1C(=O)O [C75] | < 0.0301 | < 0.0301 | < 0.0301 | < 0.0301 | 108 ± 5.4 | 105 ± 8.6 | 96 ± 22 | 103 ± 29 | 91.5 ± 7.9 | 99.5 ± 1.4 | 88.2 ± 8.7 | 90.9 ± 20 | 107 ± 2.8 | 101.8 ± 0.69 | 102 ± 4.4 | 105 ± 3.7 | 97.8 ± 1.8 | 102 ± 5.6 | 100 ± 1.4 | 103 ± 4.5 | 102 ± 7.2 | 102 ± 4.7 | 111 ± 4 | 98.9 ± 3.6 |
| Cc1[nH]n(-c2ccccc2)c(=O)c1C1(C(F)(F)F)C(=O)N(c2ccccc2)C2=C1C(=O)CC(C)(C)C2 (stereo unspecified) | < 0.0301 | < 0.0301 | < 0.0301 | < 0.0301 | 101.7 ± 0.96 | 99.8 ± 1.2 | 98.536 ± 0.016 | 97.2 ± 3.1 | 100.9 ± 0.63 | 100 ± 1.6 | 106 ± 5 | 95.5 ± 1 | 107 ± 1.1 | 102 ± 4.3 | 105 ± 1.4 | 101 ± 2.9 | 98.5 ± 2.6 | 102 ± 1.6 | 100.4 ± 0.11 | 102 ± 8.8 | 102 ± 9.5 | 102 ± 3.6 | 97.8 ± 4.5 | 104 ± 3 |
| CCCC(CCC)C(=O)O [Valproic acid] | – | – | – | – | 101.96 ± 0.094 | 102 ± 4.8 | 95.2 ± 3 | 98.6 ± 5.1 | 103 ± 2.8 | 99.9 ± 6 | 106 ± 14 | 101 ± 8.1 | 94.7 ± 4.1 | 98.5 ± 2.7 | 98.1 ± 1.8 | 95 ± 1.9 | 97.8 ± 5.3 | 96.68 ± 0.64 | 93.9 ± 13 | 89.6 ± 5.2 | 106 ± 7.5 | 105 ± 4.8 | 106 ± 4.2 | 101 ± 6.5 |
